Laboratory results as given in article PMC12974487, “Inhibition of FicD-mediated AMPylation and deAMPylation by isoprenoid diphosphates” (Proceedings of the National Academy of Sciences of the …, 2026).
Residue numbers refer to the chain shown, from its start.

Experiments:
[1] = biological target: T1, FicD^E234G (Homo sapiens, UniProt Q9BVA6, E234G); assay: MIDAS metabolite screen, FicD^E234G; type: binding; conditions: cutoff Q < 0.05 and |Log2 corrected fold change| > 2, metabolites 5 µM
T1 construct: soluble ER luminal domain (residues 105 to 458) of wild-type human FicD and three mutants; 6xHis-Sumo (N, cleaved yes); made in house; host or cells: Rosetta(DE3) E. coli
T1 sequence (Q9BVA6 105-458 E234G): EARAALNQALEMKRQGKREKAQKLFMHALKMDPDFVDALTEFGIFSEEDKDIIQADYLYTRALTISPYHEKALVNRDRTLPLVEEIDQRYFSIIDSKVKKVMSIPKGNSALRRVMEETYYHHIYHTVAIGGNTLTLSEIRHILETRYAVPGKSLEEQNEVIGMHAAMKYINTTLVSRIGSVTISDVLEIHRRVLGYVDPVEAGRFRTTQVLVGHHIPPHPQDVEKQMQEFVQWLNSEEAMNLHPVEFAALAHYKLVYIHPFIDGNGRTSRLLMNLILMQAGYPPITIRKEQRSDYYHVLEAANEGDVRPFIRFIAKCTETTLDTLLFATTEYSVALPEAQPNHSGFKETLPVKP

[2] = biological target: T2, FicD^H363A (Homo sapiens, UniProt Q9BVA6, H363A); assay: MIDAS metabolite screen, FicD^H363A; type: binding; conditions: cutoff Q < 0.05 and |Log2 corrected fold change| > 2, metabolites 5 µM
T2 construct: soluble ER luminal domain (residues 105 to 458) of wild-type human FicD and three mutants; 6xHis-Sumo (N, cleaved yes); made in house; host or cells: Rosetta(DE3) E. coli
T2 sequence (Q9BVA6 105-458 H363A): T1 sequence (Q9BVA6 105-458 E234G) with G130E, H259A
From the text: To identify small-molecule metabolite interactions with FicD, we applied an unbiased high-throughput screening approach known as MIDAS ([44]). Given the high concentrations of protein required for MIDAS screening, we purified the soluble ER luminal domain (residues 105 to 458) of wild-type human FicD and three mutants FicD^E234G, FicD^L258D, and FicD^H363A for screening (Fig. 1A). These mutants were selected based on their well-established biochemical features ([23], [24], [31]). All three are predicted to enhance detection of protein–metabolite interactions (PMIs) relative to FicD^WT through increased affinity for nucleotide substrates (FicD^E234G), improved solubility (FicD^L258D), and loss of catalytic turnover (FicD^H363A) (Fig. 1A). To decrease the potential for nonspecific small-molecule binding, we ensured the purity of our FicD proteins (SI Appendix, Fig. S1 A and B). As reported by other investigators ([24], [31]), we observe an increase in elution volume of the FicD^L258D mutant, consistent with its monomerization (SI Appendix, Fig. S1C).
Out of the 602 naturally occurring human metabolites in the MIDAS library, we applied a significance cutoff (q value < 0.05) to identify 12 PMIs with a Log2 (corrected fold change) of >2 and two PMIs with a Log2 (corrected fold change) <-2 in the FicD^WT screen (Fig. 1B and SI Appendix, Table S2). Hits were additionally triaged based on detection of multiple adducts of the metabolite in a single dataset (FPP and […] in Fig. 1B) and identification of the same metabolites across three or more of the FicD construct screens (Fig. 1C). Three chemical classes passed this initial triage: adenosine nucleotides, isoprenoid diphosphates, and thyroid hormone intermediates (Fig. 1 B and C and SI Appendix, Tables S2–S5).
22°C. Induced cultures were then harvested by centrifugation at 8000G for 15 minutes at 4°C and […]
Bacterial pellets were resuspended in 30-50mL of 50mM Tris pH 7.4/150mM NaCl/10% glycerol with one Roche cOmplete EDTA-Free Protease inhibitor cocktail tablet (cat no. COEDTAF-RO).
Triton-X100 to a final concentration of 0.2%, Chicken-egg lysozyme to a final concentration of 0.4ug/mL, and 2-5uL of Millipore Benzonase Nuclease (cat no. 70664) were added to bacterial suspension prior to sonication at 40-50% amplitude for 1-3 minutes in pulses of 5 seconds on and 30 seconds off on ice with a Sonics VCX 750 Ultrasonicator. Bacterial lysate was then clarified by centrifugation at 30,000 x g for 30 minutes at 4°C.
Clarified lysate was rotated with Qiagen NiNTA agarose beads (cat no. 30210) for 1-2 hours at 4°C. […]

| Compound | MIDAS protein-metabolite interaction (enrichment/depletion) [1] | MIDAS protein-metabolite interaction (enrichment/depletion) [2] |
| --- | --- | --- |
| Nc1ncnc2c1ncn2[C@@H]1O[C@H](COP(=O)(O)OP(=O)(O)O)[C@@H](O)[C@H]1O [ADP] | significantly enriched | significantly enriched |
| CC(C)=CCC/C(C)=C/COP(=O)(O)OP(=O)(O)O [GPP, geranyl-pyrophosphate] | significantly enriched | significantly enriched |
| CC(C)=CCC/C(C)=C/CC/C(C)=C/COP(=O)(O)OP(=O)(O)O [FPP, farnesyl-pyrophosphate] | – | significantly enriched |
